{"source": "patent EP2698383B1", "about": "“Detection of synthetic Cannabinoids” (priority 2012, dated 2014)", "format_in_all_cases": "binding, sheep", "key": {"Antibody 4.1": {"tested_on": "Antibody 4.1", "method": "(§1) The wells of an enhanced binding 96 well polystyrene microtiter plate were coated with IgG fraction of antiserum (Antibody 4.1 or antibody 4.2) raised to Immunogen 4 in separate host animals, diluted in 10mM Tris, pH8.5 (125µl/well). The appropriate antibody coating dilution was determined using standard ELISA checkerboard techniques. The plate was incubated overnight at 4°C, washed 4 times over 10 minutes with Tris buffered saline containing Tween 20 (TBST) and tapped dry.\n(§2) Standard solutions of CP47,497 -C8 were prepared in TBST at 0, 2.5, 5, 10, 20, 40, 80 and 160ng/ml for Antibody 4.1, and at 0, 5, 10, 20, 40, 80, 160 and 320ng/ml for Antibody 4.2, and 50µl of each was added to the appropriate wells. 75µl of conjugate (Hapten 1-HRP - tracer 1 - see Figure 4) diluted in Tris buffer (pH 7.2) containing EDTA, D-mannitol, sucrose, thimerosal and BSA, was added to each of the wells. The appropriate dilution of conjugate was also determined using standard ELISA checkerboard techniques. The plate was incubated at 25°C for 1 hour. Excess unbound conjugate was removed by washing 6 times over a 10 minute period with TBST. 125µl of tetramethylbenzidine (TMB) substrate solution was added to each well of the plate that was then incubated for 20 minutes in the dark at room temperature. The reaction was terminated by addition of 125µl 0.2M H2SO4 to each well. The absorbance was then measured at 450nm using a microtiter plate reader.\n(§3) In order to determine the specificity of the competitive ELISAs, standard solutions of a range of structurally similar compounds were prepared in TBST. Using the calibration curves generated and employing a single level of cross reactants (100ng/ml), these were used to determine the cross-reactivity of each immunoassay with these substances. The results of this study are presented in Table 2, as %B/B0, employing antisera raised against Immunogen 2b (C8), tracer 1 (C7) and (±)-CP-47,497 (C8 homologue) as standard."}, "Antibody 4.2": {"tested_on": "Antibody 4.2", "method": "as §1, §2, §3"}, "[1]": {"tested_on": "antibodies raised against immunogen 2b", "experiment": "Competitive ELISA cross-reactivity, for both antibodies", "details": "cross reactants 100ng/ml; tracer 1 (C7); (±)-CP-47,497 (C8 homologue) as standard", "method": "as §1, §2, §3"}, "[2]": {"details": "Cross-reactants at 100ng/ml, tracer 1 (C7), (±)-CP-47,497 (C8 homologue) as standard"}, "[3]": {"details": "standard 5 ng/ml, tracer 1 (C7)"}, "[4]": {"details": "standard 10 ng/ml, tracer 1 (C7)"}, "[5]": {"details": "standard 20 ng/ml, tracer 1 (C7)"}, "[6]": {"details": "standard 40 ng/ml, tracer 1 (C7)"}, "[7]": {"details": "standard 80 ng/ml, tracer 1 (C7)"}, "[8]": {"details": "standard 160 ng/ml, tracer 1 (C7)"}, "[9]": {"details": "standard concentration which produces 50% B/B0, tracer 1 (C7)"}}, "note": "Where two headings read alike, the source gives them in different places."}
{"molecule": "CCCCCCC(C)(C)c1ccc([C@@H]2C[C@H](O)CC[C@H]2CCCO)c(O)c1", "note": "(racemic) [(+-)-CP 55,940]", "values": [{"measurement": "%B/B0", "setting": "Antibody 4.1; [2]", "result": 93.65, "unit": "%"}, {"measurement": "%B/B0", "setting": "Antibody 4.2; [2]", "result": 97.34, "unit": "%"}, {"measurement": "%B/B0", "setting": "[1]", "result": "greater than 80%"}]}
{"molecule": "CCCCCCC(C)(C)c1ccc([C@H]2CCC[C@@H](O)C2)c(O)c1", "note": "(racemic) [(±)-CP-47,497 (C7 homologue)]", "values": [{"measurement": "%B/B0", "setting": "Antibody 4.1; [2]", "result": 37.14, "unit": "%"}, {"measurement": "%B/B0", "setting": "Antibody 4.2; [2]", "result": 48.85, "unit": "%"}, {"measurement": "%B/B0", "setting": "[1]", "result": "less than 50%"}]}
{"molecule": "CCCCCCC(C)(C)C1=CC(=O)C(C2CCCC(O)C2)=CC1=O", "note": "(racemic) [(±)-CP-47,497 (C7 para quinone analogue)]", "values": [{"measurement": "%B/B0", "setting": "Antibody 4.1; [2]", "result": 82.66, "unit": "%"}, {"measurement": "%B/B0", "setting": "Antibody 4.2; [2]", "result": 89.82, "unit": "%"}, {"measurement": "%B/B0", "setting": "[1]", "result": "greater than 80%"}]}
{"molecule": "CCCCCCCC(C)(C)c1ccc(C2CCCC(O)C2)c(O)c1", "note": "(racemic) [(±)-CP-47,497 (C8 homologue)]", "values": [{"measurement": "%B/B0", "setting": "Antibody 4.1; [2]", "result": 36.52, "unit": "%"}, {"measurement": "%B/B0", "setting": "Antibody 4.1; standard 2.5 ng/ml, tracer 1 (C7)", "result": 82, "unit": "%"}, {"measurement": "%B/B0", "setting": "Antibody 4.1; [3]", "result": 72, "unit": "%"}, {"measurement": "%B/B0", "setting": "Antibody 4.1; [4]", "result": 60, "unit": "%"}, {"measurement": "%B/B0", "setting": "Antibody 4.1; [5]", "result": 51, "unit": "%"}, {"measurement": "%B/B0", "setting": "Antibody 4.1; [6]", "result": 43, "unit": "%"}, {"measurement": "%B/B0", "setting": "Antibody 4.1; [7]", "result": 38, "unit": "%"}, {"measurement": "%B/B0", "setting": "Antibody 4.1; [8]", "result": 34, "unit": "%"}, {"measurement": "IC50", "setting": "Antibody 4.1; [9]", "result": 0.020922, "unit": "µg/mL"}, {"measurement": "%B/B0", "setting": "Antibody 4.2; [2]", "result": 49.65, "unit": "%"}, {"measurement": "%B/B0", "setting": "Antibody 4.2; [3]", "result": 88, "unit": "%"}, {"measurement": "%B/B0", "setting": "Antibody 4.2; [4]", "result": 82, "unit": "%"}, {"measurement": "%B/B0", "setting": "Antibody 4.2; [5]", "result": 72, "unit": "%"}, {"measurement": "%B/B0", "setting": "Antibody 4.2; [6]", "result": 63, "unit": "%"}, {"measurement": "%B/B0", "setting": "Antibody 4.2; [7]", "result": 52, "unit": "%"}, {"measurement": "%B/B0", "setting": "Antibody 4.2; [8]", "result": 44, "unit": "%"}, {"measurement": "%B/B0", "setting": "Antibody 4.2; standard 320 ng/ml, tracer 1 (C7)", "result": 37, "unit": "%"}, {"measurement": "IC50", "setting": "Antibody 4.2; [9]", "result": 0.095992, "unit": "µg/mL"}, {"measurement": "%B/B0", "setting": "[1]", "result": "less than 50%"}]}
{"molecule": "CCCCCc1cc(O)c2c(c1)OC(C)(C)[C@@H]1CCC(C)=C[C@@H]21", "note": "[Delta 9 THC]", "values": [{"measurement": "%B/B0", "setting": "Antibody 4.1; [2]", "result": 96.44, "unit": "%"}, {"measurement": "%B/B0", "setting": "Antibody 4.2; [2]", "result": 94.09, "unit": "%"}]}
{"molecule": "CCCCCCC(C)(C)c1cc(O)c2c(c1)OC(C)(C)[C@@H]1CC=C(CO)C[C@@H]21", "note": "[HU-210]", "values": [{"measurement": "%B/B0", "setting": "Antibody 4.1; [2]", "result": 96.01, "unit": "%"}, {"measurement": "%B/B0", "setting": "Antibody 4.2; [2]", "result": 92.94, "unit": "%"}, {"measurement": "%B/B0", "setting": "[1]", "result": "greater than 80%"}]}
{"molecule": "CCCCCCC(C)(C)c1cc(O)c2c(c1)OC(C)(C)[C@H]1CC=C(CO)C[C@H]21", "note": "[HU-211 (Dexanabinol), Dexanabinol]", "values": [{"measurement": "%B/B0", "setting": "Antibody 4.1; [2]", "result": 96.76, "unit": "%"}, {"measurement": "%B/B0", "setting": "Antibody 4.2; [2]", "result": 95.84, "unit": "%"}, {"measurement": "%B/B0", "setting": "[1]", "result": "greater than 80%"}]}
{"molecule": "CCCCCCC(C)(C)c1cc(OC)c([C@@H]2C=C(CO)[C@@H]3C[C@H]2C3(C)C)c(OC)c1", "note": "[HU-308]", "values": [{"measurement": "%B/B0", "setting": "Antibody 4.1; [2]", "result": 98.37, "unit": "%"}, {"measurement": "%B/B0", "setting": "Antibody 4.2; [2]", "result": 94.81, "unit": "%"}]}
{"molecule": "(+)-CP 55,940", "values": [{"measurement": "%B/B0", "setting": "Antibody 4.1", "result": 95.98, "unit": "%"}, {"measurement": "%B/B0", "setting": "Antibody 4.2", "result": 96.91, "unit": "%"}, {"measurement": "%B/B0", "setting": "[1]", "result": "greater than 80%"}]}
{"molecule": "(-)-11-nor-9-Carboxy-delta9-THC", "values": [{"measurement": "%B/B0", "setting": "Antibody 4.1", "result": 95.23, "unit": "%"}, {"measurement": "%B/B0", "setting": "Antibody 4.2", "result": 94.38, "unit": "%"}]}
{"molecule": "(-)-CP 55,940", "values": [{"measurement": "%B/B0", "setting": "Antibody 4.1", "result": 91.26, "unit": "%"}, {"measurement": "%B/B0", "setting": "Antibody 4.2", "result": 97.23, "unit": "%"}, {"measurement": "%B/B0", "setting": "[1]", "result": "greater than 80%"}]}
